The source of these data is patent US10189828B2, “1-methylpyrazole-piperazine compounds having multimodal activity against pain” (LABORATORIOS DEL DR. ESTEVE S.A., priority 2014, dated 2019).

Where two headings read alike, the source gives them in different places.

One may read the Ki as the dissociation constant of the complex between target and ligand, obtained from inhibition or displacement.

This assay concerns human σ1 receptor and human μ-opioid receptor. The experiment in a line: μ and σ1 dual binding: human σ1 receptor radioligand assay ([3H](+)-pentazocine, transfected HEK-293 membranes) and human μ-opioid receptor radioligand assay ([3H]-DAMGO, transfected CHO-K1 membranes). Also on record: key to μ and σ1 dual binding: +: Both Ki-μ and Ki-σ1>=500 nM; ++: One Ki<500 nM while the other Ki is >=500 nM; +++: Both Ki-μ and Ki-σ1<500 nM; ++++: Both Ki-μ and Ki-σ1<100 nM.

Setting [1] is: one combined class for Ki-μ and Ki-σ1.

As to `Cn1nccc1C(c1ncccc1F)N1CCN(CCc2ccccc2)CC1` (stereo not drawn) [Example 16, 1-((3-fluoropyridin-2-yl)(1-methyl-1H-pyrazol-5-yl)methyl)-4-phenethylpiperazine], the “μ and σ1 dual binding” value was “++”.

For `Cn1nccc1C(c1ccccc1)N1CCN(Cc2ccccc2)CC1` (stereo not drawn) [Example 2, 1-benzyl-4-((1-methyl-1H-pyrazol-5-yl)(phenyl)methyl)piperazine], the “μ and σ1 dual binding” value was “++”.

On to `Cn1nccc1C(c1ccc(F)cn1)N1CCN(CCc2cccc(O)c2)CC1` (stereo not drawn) [Example 31, 3-(2-(4-((5-fluoropyridin-2-yl)(1-methyl-1H-pyrazol-5-yl)methyl)piperazin-1-yl)ethyl)phenol], for which the “μ and σ1 dual binding” value is on record as “++”.

Take `Cn1nccc1C(c1ccccc1)N1CCN(CCc2cccc(N(S(C)(=O)=O)S(C)(=O)=O)n2)CC1` (stereo not drawn) [Example 45, N-(6-(2-(4-((1-methyl-1H-pyrazol-5-yl)(phenyl)methyl)piperazin-1-yl)ethyl)pyridin-2-yl)-N-(methylsulfonyl)methanesulfonamide]: the Ki under setting [1] was at least 500 nM.

With `COc1cccc(CCN2CCN(C(c3ccccc3)c3ccnn3C)CC2)c1` (stereo not drawn) [Example 21, 1-(3-Methoxyphenethyl)-4-((1-methyl-1H-pyrazol-5-yl)(phenyl)methyl)piperazine], the inhibitory constant (Ki) was below 500 nM.

In the case of `Cn1nccc1C(c1ccc(F)cn1)N1CCN(CCc2ccccn2)CC1` (stereo not drawn) [Example 15, 1-((5-fluoropyridin-2-yl)(1-methyl-1H-pyrazol-5-yl)methyl)-4-(2-(pyridin-2-yl)ethyl)piperazine], the Ki under setting [1] was at least 500 nM.
